# Test results from PubChem BioAssay (NCI).
#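 The compound was tested at five concentrations on cells cultured in 96-well plates, with a 48-hour exposure period. The concentration for full growth arrest is given as TGI.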
# How the values were obtained:
# Experiment in all cases: inhibition of tumour cell growth, NCI panel, 48 h
# DU-145 prostate = test system: DU-145 prostate
# HOP-62 NSCLC = test system: HOP-62 NSCLC
# SW-620 colon = test system: SW-620 colon
# MCF7 breast = test system: MCF7 breast
# NCI-H522 lung = test system: NCI-H522 lung
# NCI/ADR-RES ovarian = test system: NCI/ADR-RES ovarian
# MOLT-4 leukemia = test system: MOLT-4 leukemia
# SK-MEL-5 melanoma = test system: SK-MEL-5 melanoma
# SK-MEL-28 melanoma = test system: SK-MEL-28 melanoma
# HL-60(TB) leukemia = test system: HL-60(TB) leukemia
# RXF 393 renal = test system: RXF 393 renal
# NCI-H23 lung = test system: NCI-H23 lung
# SF-539 CNS = test system: SF-539 CNS
# SN12C renal = test system: SN12C renal
# SF-295 CNS = test system: SF-295 CNS
# COLO 205 colon = test system: COLO 205 colon
# SF-268 CNS = test system: SF-268 CNS
# ACHN renal = test system: ACHN renal
# HCC-2998 colon = test system: HCC-2998 colon
# MALME-3M melanoma = test system: MALME-3M melanoma
# MDA-MB-231 breast = test system: MDA-MB-231 breast
# SK-MEL-2 melanoma = test system: SK-MEL-2 melanoma
# HCT-116 colon = test system: HCT-116 colon
# OVCAR-8 ovarian = test system: OVCAR-8 ovarian
# CCRF-CEM leukemia = test system: CCRF-CEM leukemia
# IGROV1 ovarian = test system: IGROV1 ovarian
# LOX IMVI melanoma = test system: LOX IMVI melanoma
# HOP-92 NSCLC = test system: HOP-92 NSCLC
# UACC-62 melanoma = test system: UACC-62 melanoma
# UACC-257 melanoma = test system: UACC-257 melanoma
# CAKI-1 renal = test system: CAKI-1 renal
# RPMI-8226 leukemia = test system: RPMI-8226 leukemia
# HT29 colon = test system: HT29 colon
# MDA-MB-435 = test system: MDA-MB-435
# KM12 colon = test system: KM12 colon
# PC-3 prostate = test system: PC-3 prostate
# OVCAR-3 ovarian = test system: OVCAR-3 ovarian
# A498 renal = test system: A498 renal
# A549 NSCLC = test system: A549 NSCLC
# 786-0 renal = test system: 786-0 renal
# HCT-15 colon = test system: HCT-15 colon
# BT-549 breast = test system: BT-549 breast
# K-562 leukemia = test system: K-562 leukemia
# NCI-H226 lung = test system: NCI-H226 lung
# MDA-N = test system: MDA-N
# M14 melanoma = test system: M14 melanoma
# HS 578T breast = test system: HS 578T breast
# EKVX NSCLC = test system: EKVX NSCLC
# T-47D breast = test system: T-47D breast
# OVCAR-5 ovarian = test system: OVCAR-5 ovarian
# OVCAR-4 ovarian = test system: OVCAR-4 ovarian
# TK-10 renal = test system: TK-10 renal
# U251 CNS = test system: U251 CNS
# SNB-19 CNS = test system: SNB-19 CNS
# UO-31 renal = test system: UO-31 renal
# SK-OV-3 ovarian = test system: SK-OV-3 ovarian
# NCI-H460 lung = test system: NCI-H460 lung
# SR leukemia = test system: SR leukemia
# SNB-75 CNS = test system: SNB-75 CNS
structure (smiles),measurement,setting,value
C[C@H](NC(=O)C(Cc1ccccc1)(Cc1ccc(O)cn1)NC(=O)c1ccccc1)c1ccccc1 (stereo partly specified),TGI,DU-145 prostate,35.5 µM
same,TGI,HOP-62 NSCLC,33.8 µM
same,TGI,SW-620 colon,59.3 µM
same,TGI,MCF7 breast,75.5 µM
same,TGI,NCI-H522 lung,35.4 µM
same,TGI,NCI/ADR-RES ovarian,44.6 µM
same,TGI,MOLT-4 leukemia,84.9 µM
same,TGI,SK-MEL-5 melanoma,33.7 µM
same,TGI,SK-MEL-28 melanoma,38.3 µM
same,TGI,HL-60(TB) leukemia,64.6 µM
same,TGI,RXF 393 renal,28.2 µM
same,TGI,NCI-H23 lung,50.5 µM
same,TGI,SF-539 CNS,34.2 µM
same,TGI,SN12C renal,31.5 µM
same,TGI,SF-295 CNS,29 µM
same,TGI,COLO 205 colon,35.1 µM
same,TGI,SF-268 CNS,39.1 µM
same,TGI,ACHN renal,43.2 µM
same,TGI,HCC-2998 colon,30.8 µM
same,TGI,MALME-3M melanoma,37.6 µM
same,TGI,MDA-MB-231 breast,29.4 µM
same,TGI,SK-MEL-2 melanoma,27.6 µM
same,TGI,HCT-116 colon,28.7 µM
same,TGI,OVCAR-8 ovarian,42.1 µM
same,TGI,CCRF-CEM leukemia,> 100 µM
same,TGI,IGROV1 ovarian,37 µM
same,TGI,LOX IMVI melanoma,29.7 µM
same,TGI,HOP-92 NSCLC,38.8 µM
same,TGI,UACC-62 melanoma,26.5 µM
same,TGI,UACC-257 melanoma,34.5 µM
same,TGI,CAKI-1 renal,90.5 µM
same,TGI,RPMI-8226 leukemia,> 100 µM
same,TGI,HT29 colon,33.4 µM
same,TGI,MDA-MB-435,37.3 µM
same,TGI,KM12 colon,49.4 µM
same,TGI,PC-3 prostate,28.7 µM
same,TGI,OVCAR-3 ovarian,28.7 µM
same,TGI,A498 renal,33.5 µM
same,TGI,A549 NSCLC,31.6 µM
same,TGI,786-0 renal,31.3 µM
same,TGI,HCT-15 colon,38.3 µM
same,TGI,BT-549 breast,36.9 µM
same,TGI,K-562 leukemia,> 100 µM
same,TGI,NCI-H226 lung,36.5 µM
same,TGI,MDA-N,30.7 µM
same,TGI,M14 melanoma,29.4 µM
same,TGI,HS 578T breast,41.1 µM
same,TGI,EKVX NSCLC,34.2 µM
same,TGI,T-47D breast,69.1 µM
same,TGI,OVCAR-5 ovarian,37.4 µM
same,TGI,OVCAR-4 ovarian,50.4 µM
same,TGI,TK-10 renal,94.8 µM
same,TGI,U251 CNS,28.6 µM
same,TGI,SNB-19 CNS,39.4 µM
same,TGI,UO-31 renal,29.1 µM
O=C(C/C(=N/O)C(=O)NC1=C(Cl)C(=O)c2ccccc2C1=O)CC(c1ccccc1)c1c(O)c2ccccc2oc1=O (stereo unspecified),TGI,DU-145 prostate,11.2 µM
same,TGI,SW-620 colon,> 100 µM
same,TGI,MCF7 breast,26.8 µM
same,TGI,NCI-H522 lung,52.9 µM
same,TGI,NCI/ADR-RES ovarian,> 100 µM
same,TGI,MOLT-4 leukemia,> 100 µM
same,TGI,SK-MEL-5 melanoma,2.38 µM
same,TGI,SK-MEL-28 melanoma,> 100 µM
same,TGI,RXF 393 renal,35 µM
same,TGI,NCI-H23 lung,72.1 µM
same,TGI,SF-539 CNS,31.7 µM
same,TGI,SN12C renal,23.5 µM
same,TGI,SK-OV-3 ovarian,> 100 µM
same,TGI,SF-295 CNS,22.8 µM
same,TGI,NCI-H460 lung,16 µM
same,TGI,COLO 205 colon,33.7 µM
same,TGI,SF-268 CNS,42.5 µM
same,TGI,ACHN renal,65.7 µM
same,TGI,HCC-2998 colon,25.6 µM
same,TGI,MALME-3M melanoma,4.55 µM
same,TGI,MDA-MB-231 breast,26.5 µM
same,TGI,SK-MEL-2 melanoma,32.4 µM
same,TGI,HCT-116 colon,20.6 µM
same,TGI,SR leukemia,> 100 µM
same,TGI,OVCAR-8 ovarian,> 100 µM
same,TGI,CCRF-CEM leukemia,> 100 µM
same,TGI,IGROV1 ovarian,> 100 µM
same,TGI,LOX IMVI melanoma,> 100 µM
same,TGI,HOP-92 NSCLC,> 100 µM
same,TGI,UACC-62 melanoma,> 100 µM
same,TGI,UACC-257 melanoma,> 100 µM
same,TGI,CAKI-1 renal,32.6 µM
same,TGI,RPMI-8226 leukemia,> 100 µM
same,TGI,HT29 colon,44.3 µM
same,TGI,MDA-MB-435,4.72 µM
same,TGI,KM12 colon,17.8 µM
same,TGI,PC-3 prostate,> 100 µM
same,TGI,OVCAR-3 ovarian,15.2 µM
same,TGI,SNB-75 CNS,19 µM
same,TGI,A498 renal,> 100 µM
same,TGI,A549 NSCLC,35.3 µM
same,TGI,786-0 renal,> 100 µM
same,TGI,HCT-15 colon,14.4 µM
same,TGI,BT-549 breast,> 100 µM
same,TGI,K-562 leukemia,> 100 µM
same,TGI,NCI-H226 lung,20.3 µM
same,TGI,MDA-N,3.09 µM
same,TGI,M14 melanoma,18.6 µM
same,TGI,HS 578T breast,50.6 µM
same,TGI,EKVX NSCLC,42.3 µM
same,TGI,T-47D breast,38.1 µM
same,TGI,OVCAR-5 ovarian,32.8 µM
same,TGI,OVCAR-4 ovarian,22.2 µM
same,TGI,U251 CNS,> 100 µM
same,TGI,SNB-19 CNS,> 100 µM
same,TGI,UO-31 renal,44.5 µM
